Test results: patent US7635686B2, “Therapeutically useful triethyleneglycol cholesteryl oligonucleotides” (Bioniche Life Sciences, Inc., priority 2001, dated 2009)
{TEG-Chol} = cholesteryl attached through a triethylene glycol (TEG) linker

Experiments:
EL-4 cells [1] = test: Cleavage of poly(ADP-ribose) polymerase in EL-4 cells (FITC-antibody flow cytometry); format: cell-based, murine; settings: 53 μM, 72 h; for Percentage of cells containing cleaved PARP: EL-4 cells, untreated 1
Protocol: EL-4 cells (2.5×10^5 cells/ml) were incubated for 72 h with 0 μM (control), 53 μM of SEQ ID NO:3 or 53 μM of SEQ ID NO:7. After incubation, both control and treated cells were washed, fixed, permeabilized and incubated with an FITC-conjugated antibody that recognizes specifically the 85 kDa fragments of cleaved PARP (BioSource, Camarillo, Calif., USA) using the conditions recommended by the manufacturer. Fluorescence associated with cleaved PARP was analyzed by flow cytometry on a FACSCalibur using the program CellQUEST (both from Becton Dickinson). The percentage of cells containing cleaved PARP in EL-4 cells treated with 53 μM final concentration of sequences is shown in Table 5.

Hs578T cells [2] = test: Cell cycle progression in Hs578T multicellular spheroids (PI staining); format: cell-based, human; settings: 53 μM, 72 hrs, FIG. 5
Protocol: Multicellular spheroids (MS) is an example of a special in vitro assay, in which tumor cells are cultured in a 3-dimensional manner to form a “tumor-like” structure. In this system, there is a reinforcement of cell-cell interactions that mimic microenvironmental conditions of malignant cells in solid tumors in vivo. In this type of assay, no extracellular matrix components are added. Cells cultured in this MS system differ from those in 2-dimensional systems (monolayer culture conditions). Some of these differences are related to structural and functional differentiation of tumor cells, changes in the cell cycle of tumor cells, “multicellular drug resistance”, and changes in the diffusion and penetration of drugs throughout layers of tumor cells (reviewed in Green et al., Anticancer Drug Des. 14:153, 1999).
About 100×10^3 Hs578T cells per spheroid were cultured in presence of 53 μM final concentration of SEQ ID NO:3, SEQ ID NO:7, 53 μM final concentration of cholesteryl-TEG phosphoramidite (cholTEG) or corresponding control media (regular culture medium (RCM), RCM with the same amount of water (RCMW) as the amount added with the SEQ ID NO:7, and RCM with the same amount of acetonitrile (RCMA) as the amount added with cholesteryl-TEG phosphoramidite). Five spheroids per each experimental condition were cultured for 72 hrs. Afterwards, cell cycle progression was evaluated by propidium iodide (PI) staining (Calbiochem, Novabiochem Corporation, San Diego, Calif.) using a FACScalibur flow cytometer (Becton Dickinson, Franklin Lakes, N.J.). Changes in the percentage of cells in the different phases of the cell cycle were analyzed using MODFIT LT software (Verity Software House Inc).

Hs578T cells [3] = test: Cellular proliferation of Hs578T cells (Trypan blue exclusion count); format: cell-based, human; settings: 53 μM; for Effect on cellular proliferation (in words): 72 hrs; for Percentage of changes in cellular proliferation compared to controls (mean ± s.d.): cultured for 3 days, + stimulation, − inhibition, three independent assays
Protocol: Either 20×10^3 MDA-MB-231 (MDA-231) or Hs578T cells were plated into individual wells of 24-well plates in regular culture medium (RCM) presence or absence (control) of 53 μM (final concentration) of SEQ ID NO:3, SEQ ID NO:7, 53 μM cholesteryl-TEG phosphoramidite, or corresponding control media (regular culture medium (RCM) for SEQ ID NO:3, RCM with the same amount of water as the amount added with the SEQ ID NO:7, and RCM with the same amount of acetonitrile as the amount added with cholesteryl-TEG phosphoramidite). Cells were cultured for 72 hrs, removed with trypsin and counted with an hemocytometer using the Trypan blue exclusion technique. Results of three independent assays (mean and standard deviation (s.d.) of percentage of changes compared to controls) are shown in Table 9.

MCF-7 cells = test: Treatment of pre-formed 3-dimensional MCF-7 structures on MATRIGEL; format: cell-based, human; settings: MCF-7, 53 μM, repeated every 3-4 days up to 19-20 days, FIG. 3
Protocol: MCF-7 cells were cultured in regular culture medium (RCM), trypsinized and counted. 150×10^3 of MCF-7 cells, in wells of 24-well plates coated with 350 μl of MATRIGEL®. After the formation of 3-dimensional structures during 48 hrs without any treatment, the medium was changed and the structures were exposed to a final concentration of 53 μM of SEQ ID NO:3, 53 μM of SEQ ID NO:7, 53 μM of cholesteryl-TEG phosphoramidite, RCM or their respective control media (RCM with water, RCM with DMSO, or RCM with acetonitrile). The treatments were repeated every 3-4 days until a maximum time in culture of 19-20 days. The experiment was repeated three times. Digital photographs of the cells in the 24-well plates were taken using a Nikon Coolpix 990 digital camera connected to a Nikon inverted microscope model TMS.

HIG-82 cells = test: HIG-82 synovial cell proliferation (MTT reduction); format: cell-based, rabbit; settings: 53 μM, 48 hours; for Inhibition of HIG-82 cell proliferation, inhibition (%): MTT
How it was run: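 Adherent synovial cells at 10×10^5 cells/ml exposed 48 h to […] at 53 μM final. Proliferation measured by MTT reduction read at 570 nm and expressed as percentage inhibition.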

EL-4 cells [4] = test: Apoptosis by phosphatidylserine redistribution (annexin V flow cytometry) in EL-4 cells; format: cell-based, murine; settings: 24 hours; for Percentage of positive cells for phosphatidylserine (cells in apoptosis) in EL-4 cells: untreated cells 7%; for Induction of apoptosis in EL-4 cells (in words): translocation of phosphatidylserine, up to 53.0 μM
Protocol: Redistribution of plasma membrane phosphatidylserine is a characteristic of cells undergoing apoptosis (Martin et al., J. Exp. Med., 182:1545, 1995). The redistribution of phosphatidylserine in the plasma membrane during apoptosis was measured by flow cytometry using FITC (fluorescein isothiocyanate)-conjugated annexin V (BD Pharmingen, San Diego, Calif.). MEG-01 cells, a human chronic myelogeneous leukemia cell line positive for the Philadelphia chromosome and having a BCR-ABL gene fusion, were incubated at 2.5×10^5 cells/ml for 48 hours with 5.3, 26.5 and 53.0 μM final concentrations of SEQ ID NO:1, SEQ ID NO:2, SEQ ID NO:5, SEQ ID NO:6 and cholesteryl-TEG phosphoramidite molecule. The percentage of cells in apoptosis after exposure to the SEQ ID NOs:1, 2, 5, 6, or cholesteryl-TEG phosphoramidite treatment is reported in Table 2. The percentage of apoptosis in untreated MEG-01 cells was 12%.
EL-4 cells, a murine T lymphoma cell line, were incubated at 2.5×10^5 cells/ml for 24 hours with 0.53, 5.3 and 53.0 μM concentrations of SEQ ID NO:3, SEQ ID NO:7 or cholesteryl-TEG phosphoramidite. The percentage of cells in apoptosis after exposure to SEQ ID NO:3, SEQ ID NO:7 or cholesteryl-TEG phosphoramidite treatment is reported in Table 3. The percentage of apoptosis in untreated EL-4 cells was 7%.

## 5′ OH-CCACCC-OH 3′ (listed as DNA, chemistry not fully specified) [SEQ ID NO:3]
EL-4 cells [1]
  Cleavage of PARP in EL-4 cells (in words): inactive
  Percentage of cells containing cleaved PARP: 1%
Hs578T cells [2]
  Cell cycle progression in multicellular spheroids: did not significantly modify cell cycle progression
Hs578T cells [3]
  Effect on cellular proliferation (in words): did not significantly affect cellular proliferation
  Percentage of changes in cellular proliferation compared to controls (mean ± s.d.): −6.5 ± 5%
MCF-7 cells
  Effect on pre-formed 3-dimensional structures on MATRIGEL: did not affect the 3-dimensional structures
HIG-82 cells
  Inhibition of proliferation of synovial HIG-82 cells (in words): did not inhibit proliferation
  Inhibition of HIG-82 cell proliferation, inhibition (%): 0%
EL-4 cells [4]; 0.53 μM
  Percentage of positive cells for phosphatidylserine (cells in apoptosis) in EL-4 cells: 7%
EL-4 cells [4]; 5.3 μM
  Percentage of positive cells for phosphatidylserine (cells in apoptosis) in EL-4 cells: 7%
EL-4 cells [4]; 53.0 μM
  Percentage of positive cells for phosphatidylserine (cells in apoptosis) in EL-4 cells: 7%
EL-4 cells [4]
  Induction of apoptosis in EL-4 cells (in words): neither SEQ ID NO:3 nor cholesteryl-TEG phosphoramidite caused apoptosis

## 5′ OH-CCACCC(TEG-cholesteryl) 3′ (3' {TEG-Chol}, sugars by position and backbone not given here) [SEQ ID NO:7]
EL-4 cells [1]
  Cleavage of PARP in EL-4 cells (in words): capacity to induce apoptosis as measured by cleavage of PARP
  Percentage of cells containing cleaved PARP: 84%
Hs578T cells [2]
  Cell cycle progression in multicellular spheroids: increased the percentage of cells in G2M and S-phase and decrease the percentage of cells in G0/G1
Hs578T cells [3]
  Effect on cellular proliferation (in words): capacity to inhibit cellular proliferation
  Percentage of changes in cellular proliferation compared to controls (mean ± s.d.): −91.8 ± 10.5%
MCF-7 cells
  Effect on pre-formed 3-dimensional structures on MATRIGEL: disrupted the growth pattern of the structures
HIG-82 cells
  Inhibition of proliferation of synovial HIG-82 cells (in words): capacity to inhibit the cellular proliferation
  Inhibition of HIG-82 cell proliferation, inhibition (%): 53%
EL-4 cells [4]; 0.53 μM
  Percentage of positive cells for phosphatidylserine (cells in apoptosis) in EL-4 cells: 8%
EL-4 cells [4]; 5.3 μM
  Percentage of positive cells for phosphatidylserine (cells in apoptosis) in EL-4 cells: 11%
EL-4 cells [4]; 53.0 μM
  Percentage of positive cells for phosphatidylserine (cells in apoptosis) in EL-4 cells: 49%
EL-4 cells [4]
  Induction of apoptosis in EL-4 cells (in words): capacity to induce apoptosis
